Test system: Five broadleaf species (IPOHE, CHEAL, EPHHL, ABUTH and CASOB)
Assay: Greenhouse study of glyphosate salt solutions in mixture with a second herbicide (Colby's equation)
Format: in vivo
Details: for % Actual Control: 420 gae/ha glyphosate and/or 140 gae/ha second herbicide, 3 days after application, averaged over the 5 species; for Herbicide interaction with 2,4-D DMA and triclopyr TEA (actual versus expected control): Colby's equation
Procedure: In a further greenhouse study, the efficacy of a glyphosate DMA salt solution in mixture with DMA 4 (456 g/l 2,4-D acid equivalent in the form of the DMA salt) and Garlon 3A (360 g/l triclopyr acid equivalent in the form of the triethylamine [TEA] salt) respectively was compared with the efficacy of a glyphosate K salt solution in the same mixtures. The glyphosate salt solutions were prepared by diluting the glyphosate DMA salt concentrate and glyphosate K salt concentrate with the required amount of water to prepare solutions containing 480 g/l glyphosate acid equivalent each. Five broadleaf species (IPOHE, CHEAL, EPHHL, ABUTH and CASOB) were sprayed with the individual formulations as well as the mixtures listed in Table 6. The herbicide interactions were analyzed using Colby's equation. This equation for the expected mixture response is: Y1+2=Y1+Y2−(Y1Y2)100 where Y1+2 is the expected mixture response and y1 and y2 are the percent control values of the individual herbicides.

SMILES	% Actual Control [%]	Herbicide interaction with 2,4-D DMA and triclopyr TEA (actual versus expected control)
CCN(CC)CC.O=C(O)COc1nc(Cl)c(Cl)cc1Cl [triclopyr TEA salt]	55.0	
CNC.O=C(O)COc1ccc(Cl)cc1Cl [2,4-D DMA salt]	47.0	
CNC.O=C(O)CNCP(=O)(O)O [glyphosate DMA salt]	35.7	no antagonism
O=C(O)CNCP(=O)([O-])O.[K+] [glyphosate K salt]	35.7	antagonistic
